Assay in all cases: DTP human tumour cell line panel, 48 h
Test [1] has as its system SF-295 CNS.
The test system of test [2] is NCI-H226 lung.
Test [3] relates to ACHN renal.
For test [4], the system named is SK-OV-3 ovarian.
In test [5] the test system is SF-268 CNS.
For test [6], the system named is MDA-MB-231 breast.
Test [7] relates to HCT-15 colon.
In test [8] the test system is SNB-75 CNS.
The test system of test [9] is HCC-2998 colon.
Test [10] deals with HOP-92 NSCLC.

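Growth conditions: 96-well plates. Treatment: test compound, 48 hours, 5 concentrations. Analysis: linear interpolation between bracketing concentrations; unreached endpoints set to highest concentration. Here, GI50 denotes the concentration required for 50% inhibition of growth. At the TGI there is no net growth.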 Where only a bound is given, the exact number is not on record here.

Regarding `Nc1ccc(-n2c(=O)oc3ccc(Cl)cc3c2=O)c(Cl)c1`, the GI50 (as a rule, the concentration giving 50% growth inhibition) in test [1] was 1.07 µM; in test [2] it was 0.154 µM; in test [3] it was 0.169 µM; in test [4], 0.0934 µM; in [5] it was 0.108 µM; in [6] it was 0.111 µM. The GI50 in test [7] was 0.138 µM; in test [8], 0.0894 µM; in [9] it was 0.377 µM; in test [10], 0.0281 µM. For the same molecule, the TGI (commonly the concentration giving total growth inhibition) in test [1] amounted to 2.8 µM; in [2] it was 0.787 µM; in test [3] it was 4.41 µM; in test [4] it was 1.6 µM; in [5], 2.33 µM; in test [6], 1.68 µM. Moreover, the TGI was 21.6 µM in test [7], 0.41 µM in test [8], 2.65 µM in [9] and 0.168 µM in test [10].

`CC(C)(C)OC(=O)NCC(=O)N1CCCN(C(=O)CNC(=O)OC(C)(C)C)CC1`: the TGI in [1], in test [2], in [3], in test [4], in test [5] and in test [6] was above 100 µM throughout. In addition, the TGI in test [7], in test [8], in [9] and in test [10] was above 100 µM throughout.

With `O=C1C[C@H](c2ccccc2)C2(C(=O)c3ccccc3C2=O)[C@H](c2ccccc2)C1`, the concentration for total growth inhibition (TGI) in [1] is above 100 µM; in [2], above 100 µM; in test [4] it was above 100 µM; in test [6], 80.2 µM; in [7], above 100 µM; in [8] it was above 100 µM. For the same molecule, the TGI in test [9] and in [10] was above 100 µM in each case.

Consider `Nc1c(S(=O)(=O)O)cc(Nc2cccc(S(=O)(=O)/C=C/S(=O)(=O)O)c2)c2c1C(=O)c1ccccc1C2=O`, for which the TGI in test [1], in test [2], in [3], in test [4], in test [5] and in test [6] was above 100 µM in each case. For the same molecule, the TGI in [7], in test [8], in [9] and in [10] was above 100 µM each time.

Consider `COc1ccc(/C=N/n2c(Cc3ccc(Cl)cc3)n[nH]c2=O)c(OC)c1`, for which the total growth inhibition concentration (TGI) was 42.9 µM in test [1]; 61.2 µM in test [2]; above 100 µM in test [3]; above 100 µM in test [4]; 32 µM in [5]; above 100 µM in test [6]. The TGI in test [7] was above 100 µM; in test [8] it was 37.5 µM; in test [9], above 100 µM; in test [10], 65.9 µM.

For `CCOc1cc(C2SCC(=O)N2c2nc3cc4sc(N5C(=O)CSC5c5ccc(O)c(OCC)c5)nc4cc3s2)ccc1O` (configuration not stated), the TGI is above 100 µM in test [1]; above 94.4 µM in test [2]; above 100 µM in [3]; above 100 µM in test [4]; above 100 µM in test [5]; above 100 µM in test [6]. Besides, the total growth inhibition concentration (TGI) in test [7] was above 100 µM; in test [8], above 100 µM; in [9], above 100 µM; in test [10], above 88.6 µM.

With `O=C1C(N=Nc2ccc(-c3nc4ccccc4[nH]3)cc2)NC(=S)N1c1ccccc1` (configuration not stated), the TGI in [1], in [2], in test [3], in test [4], in test [5] and in [6] was above 100 µM throughout. Besides, the TGI in test [7] is 43.8 µM; in test [8], above 100 µM; in test [9], 41.7 µM; in test [10], above 100 µM.

Consider `CC(C)(C)c1cc(C2COC(=O)COCC(=O)OCCOCCOCCO2)cc(C(C)(C)C)c1O` (configuration not stated), for which the TGI in test [1] was 58.5 µM; in test [2], above 100 µM; in test [3], 37.2 µM; in test [4], 55.9 µM; in test [5], 41.3 µM; in test [6] it was above 100 µM. In addition, the TGI was above 100 µM in test [7], 37 µM in [8], 27.9 µM in test [9] and 59.3 µM in test [10].

`O=C(C#Cc1cn(C2CC(O)C(CO)O2)c(=O)[nH]c1=O)c1ccccc1` (configuration not stated): the total growth inhibition concentration (TGI) in test [1], in test [2], in test [3], in [4], in test [5] and in [6] was above 100 µM throughout. Further, the TGI was above 100 µM in test [7], above 100 µM in test [8], above 100 µM in test [9] and 53.2 µM in test [10].

Turning to `c1ccc(C2=C(c3ccccc3)P(c3ccccc3)C2)cc1` (configuration not stated), the TGI in [1], in test [2], in [3], in [4], in [5] and in test [6] was above 100 µM throughout. The concentration for total growth inhibition (TGI) in test [7], in test [8], in [9] and in [10] was above 100 µM throughout.

For the molecule `CCOC(=O)N(C)C1(c2ccccc2)CCN(CCCC(=O)c2ccc(F)cc2)CC1`, the concentration for total growth inhibition (TGI) in test [1], in test [2], in test [3], in test [4], in [5] and in [6] was above 100 µM in each case. The total growth inhibition concentration (TGI) in test [7] is above 100 µM; in [9], 42.3 µM; in [10], 78.6 µM.

`O=C(c1ccccc1)N1C(=S)N(c2ccc([N+](=O)[O-])cc2)C(=Nc2ccccc2)C1=Nc1ccccc1`: the concentration for total growth inhibition (TGI) in test [1], in test [2], in test [3], in [4], in test [5] and in test [6] was above 100 µM throughout. In addition, the concentration for total growth inhibition (TGI) in test [7], in test [8], in test [9] and in test [10] was above 100 µM each time.

For the origin of these results see PubChem BioAssay (NCI).
